From ChEMBL document CHEMBL1201862, “PubChem BioAssay data set” (2004)
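How tested: cells in 96-well plates exposed to compound for 48 hours at five concentrations. GI50 marks 50% less growth.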 Calls of active or inactive are those of the source. Rule as the data show it: active = GI50 up to about 1.1 µM and inactive = higher.

Legend:
Experiment in all cases: growth of human tumour cells (NCI), 48 h
IGROV-1 = test system: IGROV-1
RXF 393 = test system: RXF 393
UO-31 = test system: UO-31
KM12 = test system: KM12
DMS-273 = test system: DMS-273
UACC-62 = test system: UACC-62
ACHN = test system: ACHN
SF-539 = test system: SF-539
MDA-N = test system: MDA-N
T47D = test system: T47D
OVCAR-3 = test system: OVCAR-3
U-251 = test system: U-251
NCI-H226 = test system: NCI-H226
A549 = test system: A549
A498 = test system: A498
NCI-H23 = test system: NCI-H23
786-0 = test system: 786-0
OVCAR-8 = test system: OVCAR-8
NCI-H522 = test system: NCI-H522
SK-MEL-5 = test system: SK-MEL-5

## CC1OC(CC(=O)O)CC2=C1C(=O)c1c(O)cccc1C2=O (stereo not given) [NANAOMYCIN]
IGROV-1
  GI50: 360 nM (active)
RXF 393
  GI50: 24.2 nM (active)
UO-31
  GI50: 483 nM (active)
KM12
  GI50: 1270 nM (inactive)
DMS-273
  GI50: 212 nM (active)
UACC-62
  GI50: 116 nM (active)
ACHN
  GI50: 229 nM (active)
SF-539
  GI50: 1040 nM (active)
MDA-N
  GI50: 182 nM (active)
T47D
  GI50: 188 nM (active)
OVCAR-3
  GI50: 81.7 nM (active)
U-251
  GI50: 1030 nM (active)
NCI-H226
  GI50: 977 nM (active)
A549
  GI50: 2080 nM (inactive)
A498
  GI50: 900 nM (active)
NCI-H23
  GI50: 560 nM (active)
786-0
  GI50: 137 nM (active)
OVCAR-8
  GI50: 128 nM (active)
NCI-H522
  GI50: 27.8 nM (active)
SK-MEL-5
  GI50: 289 nM (active)

## CCOC(=O)C(Cc1cc(OC)c(CC(C(=O)OCC)C(=O)OCC)cc1OC)C(=O)OCC
IGROV-1
  GI50: > 100000 nM (inactive)
RXF 393
  GI50: > 55700 nM (inactive)
UO-31
  GI50: 44000 nM (inactive)
KM12
  GI50: > 100000 nM (inactive)
DMS-273
  GI50: > 100000 nM (inactive)
UACC-62
  GI50: > 100000 nM (inactive)
ACHN
  GI50: > 100000 nM (inactive)
SF-539
  GI50: 29200 nM (inactive)
MDA-N
  GI50: > 100000 nM (inactive)
T47D
  GI50: > 100000 nM (inactive)
OVCAR-3
  GI50: > 100000 nM (inactive)
U-251
  GI50: > 66400 nM (inactive)
NCI-H226
  GI50: > 91400 nM (inactive)
A549
  GI50: > 100000 nM (inactive)
A498
  GI50: > 100000 nM (inactive)
NCI-H23
  GI50: > 100000 nM (inactive)
786-0
  GI50: 61500 nM (inactive)
OVCAR-8
  GI50: > 81100 nM (inactive)
NCI-H522
  GI50: > 100000 nM (inactive)
SK-MEL-5
  GI50: > 100000 nM (inactive)

## Nc1nc(N)c2c(Cl)c(CNc3ccc(Cl)c(Cl)c3)ccc2n1
IGROV-1
  GI50: < 10 nM (active)
RXF 393
  GI50: 337 nM (active)
UO-31
  GI50: 29.4 nM (active)
KM12
  GI50: 23.8 nM (active)
DMS-273
  GI50: < 25.9 nM (active)
UACC-62
  GI50: < 10 nM (active)
ACHN
  GI50: < 10 nM (active)
SF-539
  GI50: 16 nM (active)
MDA-N
  GI50: < 10 nM (active)
T47D
  GI50: 6850 nM (inactive)
OVCAR-3
  GI50: 168 nM (active)
U-251
  GI50: < 21.5 nM (active)
NCI-H226
  GI50: 12900 nM (inactive)
A549
  GI50: < 10 nM (active)
A498
  GI50: 68.2 nM (active)
NCI-H23
  GI50: 10.2 nM (active)
786-0
  GI50: < 10 nM (active)
OVCAR-8
  GI50: < 10 nM (active)
NCI-H522
  GI50: 49.9 nM (active)
SK-MEL-5
  GI50: < 10 nM (active)

## COc1ccc2[nH]c3ccc4cc[n+](CCN5CCC(C6CCN(CC[n+]7ccc8ccc9[nH]c%10ccc(OC)cc%10c9c8c7)CC6)CC5)cc4c3c2c1
IGROV-1
  GI50: 352 nM (active)
RXF 393
  GI50: 569 nM (active)
UO-31
  GI50: > 100000 nM (inactive)
KM12
  GI50: 818 nM (active)
DMS-273
  GI50: 230 nM (active)
UACC-62
  GI50: 938 nM (active)
ACHN
  GI50: 180 nM (active)
SF-539
  GI50: 2650 nM (inactive)
MDA-N
  GI50: 2960 nM (inactive)
T47D
  GI50: 20400 nM (inactive)
OVCAR-3
  GI50: > 62100 nM (inactive)
U-251
  GI50: 4670 nM (inactive)
NCI-H226
  GI50: 29400 nM (inactive)
A549
  GI50: 409 nM (active)
A498
  GI50: > 16200 nM (inactive)
NCI-H23
  GI50: > 50000 nM (inactive)
786-0
  GI50: 249 nM (active)
OVCAR-8
  GI50: 405 nM (active)
NCI-H522
  GI50: 875 nM (active)
SK-MEL-5
  GI50: 1810 nM (inactive)
